Measurements: ChEMBL document CHEMBL4014348, “Design, Multicomponent Synthesis, and Anticancer Activity of a Focused Histone Deacetylase (HDAC) Inhibitor Library with Peptoid-Based Cap Groups” (J Med Chem, 2017)
Where “and” joins values, the source holds several entries; their conditions need not be identical. Identical values can stand only once.

Columns and labels:
[1] = biological target: T1, Histone deacetylase 1/2/3/6 (Homo sapiens, UniProt Q13547+O15379+Q9UBN7+Q92769); test: Inhibition of HDAC1/2/3/6 in human A2780 cells using Boc-Lys(epsilon-Ac)-AMC as substrate preincubated for 18 hrs followed by substrate addition measured after 3 hrs by fluorescence assay; format: cell-based
[2] = biological target: T1, Histone deacetylase 1/2/3/6; test: Inhibition of HDAC1/2/3/6 in human A2780cisR cells using Boc-Lys(epsilon-Ac)-AMC as substrate preincubated for 18 hrs followed by substrate addition measured after 3 hrs by fluorescence assay; format: cell-based
[3] = biological target: T1, Histone deacetylase 1/2/3/6; test: Inhibition of HDAC1/2/3/6 in human Cal27 cells using Boc-Lys(epsilon-Ac)-AMC as substrate preincubated for 18 hrs followed by substrate addition measured after 3 hrs by fluorescence assay; format: cell-based
A2780cisR = test: Cytotoxicity against human A2780cisR cells assessed as cell survival after 72 hrs by MTT assay; format: functional, cell-based
A2780 = test: Cytotoxicity against human A2780 cells assessed as cell survival after 72 hrs by MTT assay; format: functional, cell-based; conditions: A2780, 72 h
CAL-27 = test: Cytotoxicity against human CAL27 cells assessed as cell survival after 72 hrs by MTT assay; format: functional, cell-based; conditions: CAL-27, 72 h
Histone deacetylase 1 = Histone deacetylase 1 (Homo sapiens, UniProt Q13547); test: Inhibition of C-terminal FLAG/His-tagged recombinant human HDAC1 expressed in baculovirus infected Sf9 insect cells using Z-(Ac)Lys-AMC as substrate measured after 90 mins by fluorescence assay
Chain of Histone deacetylase 1 (Q13547 whole entry): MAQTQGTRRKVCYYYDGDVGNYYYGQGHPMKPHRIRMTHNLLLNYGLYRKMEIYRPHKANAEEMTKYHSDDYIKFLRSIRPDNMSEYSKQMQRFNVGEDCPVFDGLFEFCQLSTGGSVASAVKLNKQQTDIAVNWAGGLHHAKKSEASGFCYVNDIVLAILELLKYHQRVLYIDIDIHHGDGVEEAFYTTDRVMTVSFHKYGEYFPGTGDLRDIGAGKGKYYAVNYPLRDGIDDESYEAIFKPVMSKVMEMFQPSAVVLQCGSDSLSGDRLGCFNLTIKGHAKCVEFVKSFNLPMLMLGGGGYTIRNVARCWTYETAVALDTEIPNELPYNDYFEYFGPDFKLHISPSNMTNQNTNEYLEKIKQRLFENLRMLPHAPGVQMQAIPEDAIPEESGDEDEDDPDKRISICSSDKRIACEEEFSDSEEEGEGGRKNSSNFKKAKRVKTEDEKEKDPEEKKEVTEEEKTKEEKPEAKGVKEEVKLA

[4] = biological target: T2, Protein deacetylase HDAC6 (Homo sapiens, UniProt Q9UBN7); test: Inhibition of N-terminal GST-tagged recombinant human HDAC6 expressed in baculovirus infected Sf9 insect cells using Z-(Ac)Lys-AMC as substrate measured after 90 mins by fluorescence assay
T2 sequence (Q9UBN7 whole entry): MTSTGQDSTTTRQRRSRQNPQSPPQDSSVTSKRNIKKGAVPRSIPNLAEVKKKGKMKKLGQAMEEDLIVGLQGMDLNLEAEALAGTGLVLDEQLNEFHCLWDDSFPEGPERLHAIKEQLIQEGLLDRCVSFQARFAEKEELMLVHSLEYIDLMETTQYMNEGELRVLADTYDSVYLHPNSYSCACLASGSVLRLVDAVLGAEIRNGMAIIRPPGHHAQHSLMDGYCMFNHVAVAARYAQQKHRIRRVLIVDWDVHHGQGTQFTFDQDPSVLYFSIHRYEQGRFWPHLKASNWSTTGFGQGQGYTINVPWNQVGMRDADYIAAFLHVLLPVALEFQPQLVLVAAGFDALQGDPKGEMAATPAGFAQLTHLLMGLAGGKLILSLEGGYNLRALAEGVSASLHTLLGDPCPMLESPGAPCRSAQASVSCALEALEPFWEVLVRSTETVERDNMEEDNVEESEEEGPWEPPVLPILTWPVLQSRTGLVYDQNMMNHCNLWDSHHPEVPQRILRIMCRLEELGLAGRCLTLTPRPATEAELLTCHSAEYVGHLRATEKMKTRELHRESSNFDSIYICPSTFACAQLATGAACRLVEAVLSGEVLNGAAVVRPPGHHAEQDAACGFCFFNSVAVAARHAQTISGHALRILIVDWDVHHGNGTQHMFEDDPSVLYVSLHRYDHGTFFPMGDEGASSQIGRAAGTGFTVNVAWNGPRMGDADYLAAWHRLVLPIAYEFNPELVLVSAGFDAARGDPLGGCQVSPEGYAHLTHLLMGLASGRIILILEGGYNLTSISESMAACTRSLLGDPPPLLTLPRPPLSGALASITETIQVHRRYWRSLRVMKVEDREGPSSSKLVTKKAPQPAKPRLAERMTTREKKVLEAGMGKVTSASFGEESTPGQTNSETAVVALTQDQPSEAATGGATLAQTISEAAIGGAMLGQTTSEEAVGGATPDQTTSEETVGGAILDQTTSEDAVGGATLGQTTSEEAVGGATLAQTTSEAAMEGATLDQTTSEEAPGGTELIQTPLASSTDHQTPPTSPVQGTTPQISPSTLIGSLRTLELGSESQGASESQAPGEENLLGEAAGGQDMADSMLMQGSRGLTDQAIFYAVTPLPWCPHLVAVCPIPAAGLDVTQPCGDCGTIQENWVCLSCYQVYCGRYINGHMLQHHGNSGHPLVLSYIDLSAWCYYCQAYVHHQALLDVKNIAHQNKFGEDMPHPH

[5] = biological target: Histone deacetylase 3/Nuclear receptor corepressor 2 (HDAC3/NCoR2) (Homo sapiens, UniProt O15379); test: Inhibition of full length human recombinant C-terminal His-tagged HDAC3/NcoR2 expressed in baculovirus infected Sf9 insect cells using Boc-Lys(epsilon-Ac)-AMC as substrate measured after 90 mins by fluorescence assay
Chain of Histone deacetylase 3/Nuclear receptor corepressor 2 (HDAC3/NCoR2) (O15379 whole entry): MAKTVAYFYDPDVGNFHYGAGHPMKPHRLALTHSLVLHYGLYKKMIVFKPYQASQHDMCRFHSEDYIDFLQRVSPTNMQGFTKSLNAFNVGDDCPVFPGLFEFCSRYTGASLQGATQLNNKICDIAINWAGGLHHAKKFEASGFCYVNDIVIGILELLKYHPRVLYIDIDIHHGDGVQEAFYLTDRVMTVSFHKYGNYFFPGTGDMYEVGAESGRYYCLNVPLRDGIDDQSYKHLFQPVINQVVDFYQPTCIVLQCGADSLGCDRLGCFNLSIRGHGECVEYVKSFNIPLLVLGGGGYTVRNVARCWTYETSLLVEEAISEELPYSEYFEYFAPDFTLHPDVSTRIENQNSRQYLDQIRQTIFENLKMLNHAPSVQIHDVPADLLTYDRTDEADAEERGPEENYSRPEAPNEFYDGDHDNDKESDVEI
Chain of Histone deacetylase 3/Nuclear receptor corepressor 2 (HDAC3/NCoR2) (Q9Y618 whole entry, further chain): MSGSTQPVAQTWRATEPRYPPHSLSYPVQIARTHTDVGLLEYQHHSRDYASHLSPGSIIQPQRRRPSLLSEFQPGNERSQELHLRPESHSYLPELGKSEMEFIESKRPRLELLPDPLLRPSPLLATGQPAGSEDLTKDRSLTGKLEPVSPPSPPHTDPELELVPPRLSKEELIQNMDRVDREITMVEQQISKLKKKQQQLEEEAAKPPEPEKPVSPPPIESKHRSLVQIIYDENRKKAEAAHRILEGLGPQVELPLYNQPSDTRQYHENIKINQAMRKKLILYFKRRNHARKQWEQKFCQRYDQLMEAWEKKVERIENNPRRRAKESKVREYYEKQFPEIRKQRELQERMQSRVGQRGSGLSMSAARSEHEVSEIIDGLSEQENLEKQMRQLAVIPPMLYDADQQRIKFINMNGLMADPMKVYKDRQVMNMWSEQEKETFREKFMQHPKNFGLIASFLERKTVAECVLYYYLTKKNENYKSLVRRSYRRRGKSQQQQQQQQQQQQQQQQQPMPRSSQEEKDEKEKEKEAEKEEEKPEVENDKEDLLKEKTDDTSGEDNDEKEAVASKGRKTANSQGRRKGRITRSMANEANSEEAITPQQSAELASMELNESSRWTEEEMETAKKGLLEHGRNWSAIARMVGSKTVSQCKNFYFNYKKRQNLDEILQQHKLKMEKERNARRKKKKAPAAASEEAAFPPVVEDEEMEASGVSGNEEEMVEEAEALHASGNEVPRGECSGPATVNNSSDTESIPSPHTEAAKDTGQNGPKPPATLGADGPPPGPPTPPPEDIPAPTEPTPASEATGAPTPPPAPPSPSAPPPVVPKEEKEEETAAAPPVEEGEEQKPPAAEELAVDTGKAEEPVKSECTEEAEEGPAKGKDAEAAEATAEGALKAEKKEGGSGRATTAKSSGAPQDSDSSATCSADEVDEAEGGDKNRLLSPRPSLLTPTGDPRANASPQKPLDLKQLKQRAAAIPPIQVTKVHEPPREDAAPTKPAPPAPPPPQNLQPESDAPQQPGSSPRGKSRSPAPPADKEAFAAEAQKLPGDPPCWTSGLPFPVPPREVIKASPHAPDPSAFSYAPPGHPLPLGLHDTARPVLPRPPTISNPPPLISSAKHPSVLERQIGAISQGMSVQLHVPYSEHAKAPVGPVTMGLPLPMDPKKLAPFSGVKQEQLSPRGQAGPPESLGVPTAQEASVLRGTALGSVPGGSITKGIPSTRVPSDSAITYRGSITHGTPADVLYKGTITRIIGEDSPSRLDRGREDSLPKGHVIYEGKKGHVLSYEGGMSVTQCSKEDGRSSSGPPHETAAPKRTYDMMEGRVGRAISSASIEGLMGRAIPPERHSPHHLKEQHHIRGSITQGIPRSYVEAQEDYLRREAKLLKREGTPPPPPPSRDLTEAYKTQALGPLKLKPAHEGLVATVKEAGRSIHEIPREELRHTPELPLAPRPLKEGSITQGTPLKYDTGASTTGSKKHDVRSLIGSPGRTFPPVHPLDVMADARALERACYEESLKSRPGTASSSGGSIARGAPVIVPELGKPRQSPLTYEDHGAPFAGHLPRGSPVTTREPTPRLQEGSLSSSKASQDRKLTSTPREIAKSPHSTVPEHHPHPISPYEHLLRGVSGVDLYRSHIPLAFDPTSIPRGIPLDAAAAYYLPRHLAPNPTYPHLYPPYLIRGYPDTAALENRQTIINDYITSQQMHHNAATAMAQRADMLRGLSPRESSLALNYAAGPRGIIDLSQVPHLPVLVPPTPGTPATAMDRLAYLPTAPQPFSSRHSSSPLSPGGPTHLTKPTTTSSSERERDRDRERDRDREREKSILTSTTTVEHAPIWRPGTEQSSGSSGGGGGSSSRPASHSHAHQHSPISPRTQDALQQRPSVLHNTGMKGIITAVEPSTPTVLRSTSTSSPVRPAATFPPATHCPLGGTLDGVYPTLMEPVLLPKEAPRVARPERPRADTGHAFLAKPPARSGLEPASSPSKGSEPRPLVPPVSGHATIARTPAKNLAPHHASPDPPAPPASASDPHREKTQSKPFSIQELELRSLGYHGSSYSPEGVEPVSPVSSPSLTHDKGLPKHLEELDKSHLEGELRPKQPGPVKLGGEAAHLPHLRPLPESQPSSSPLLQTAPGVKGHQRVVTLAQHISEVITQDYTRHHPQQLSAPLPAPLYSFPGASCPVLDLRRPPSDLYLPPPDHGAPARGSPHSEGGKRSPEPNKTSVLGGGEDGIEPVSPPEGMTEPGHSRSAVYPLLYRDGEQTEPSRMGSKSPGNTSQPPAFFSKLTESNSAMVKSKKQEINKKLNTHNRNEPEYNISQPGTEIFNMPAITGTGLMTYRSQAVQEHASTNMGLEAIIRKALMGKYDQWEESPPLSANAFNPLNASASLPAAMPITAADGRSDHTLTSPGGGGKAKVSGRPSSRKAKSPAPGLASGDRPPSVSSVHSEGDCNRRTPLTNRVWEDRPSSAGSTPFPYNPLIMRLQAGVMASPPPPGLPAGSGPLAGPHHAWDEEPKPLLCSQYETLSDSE

Histone deacetylase 2 = Histone deacetylase 2 (Homo sapiens, UniProt Q92769); test: Inhibition of full length human recombinant C-terminal FLAG-tagged HDAC2 expressed in baculovirus infected Sf9 insect cells using Boc-Lys(epsilon-Ac)-AMC as substrate measured after 90 mins by fluorescence assay; format: cell-based
Chain of Histone deacetylase 2 (Q92769 whole entry): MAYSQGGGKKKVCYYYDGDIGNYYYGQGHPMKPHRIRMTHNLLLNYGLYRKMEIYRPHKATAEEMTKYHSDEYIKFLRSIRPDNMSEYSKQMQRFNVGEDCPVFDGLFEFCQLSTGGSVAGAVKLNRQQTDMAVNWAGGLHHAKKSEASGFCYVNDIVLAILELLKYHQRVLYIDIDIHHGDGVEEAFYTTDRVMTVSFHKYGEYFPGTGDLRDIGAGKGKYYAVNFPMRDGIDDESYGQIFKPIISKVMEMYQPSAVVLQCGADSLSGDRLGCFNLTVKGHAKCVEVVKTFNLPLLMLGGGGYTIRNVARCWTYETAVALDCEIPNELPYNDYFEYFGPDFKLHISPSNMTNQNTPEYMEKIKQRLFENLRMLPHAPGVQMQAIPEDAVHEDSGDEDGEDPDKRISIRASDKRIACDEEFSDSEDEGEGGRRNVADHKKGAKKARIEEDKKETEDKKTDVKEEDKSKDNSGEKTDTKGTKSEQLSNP

Histone deacetylase 8 = biological target: T3, Histone deacetylase 8 (Homo sapiens, UniProt Q9BY41); test: Inhibition of human recombinant HDAC8 expressed in Escherichia coli using Z-L-Lys(epsilon-trifluoroacetyl)-AMC as substrate measured after 90 mins by fluorescence assay
T3 sequence (Q9BY41 whole entry): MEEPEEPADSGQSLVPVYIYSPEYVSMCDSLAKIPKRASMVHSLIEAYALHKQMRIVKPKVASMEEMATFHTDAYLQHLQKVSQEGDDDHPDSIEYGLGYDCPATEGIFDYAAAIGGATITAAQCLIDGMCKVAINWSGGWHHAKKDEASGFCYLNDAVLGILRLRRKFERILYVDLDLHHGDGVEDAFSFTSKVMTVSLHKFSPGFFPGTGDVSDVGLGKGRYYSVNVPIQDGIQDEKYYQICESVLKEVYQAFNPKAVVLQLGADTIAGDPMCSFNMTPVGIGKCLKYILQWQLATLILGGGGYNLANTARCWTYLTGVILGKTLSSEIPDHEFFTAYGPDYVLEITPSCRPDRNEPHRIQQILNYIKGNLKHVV

[6] = biological target: T1, Histone deacetylase 1/2/3/6; test: Inhibition of HDAC1/2/3/6 in human Cal27CisR cells using Boc-Lys(epsilon-Ac)-AMC as substrate preincubated for 18 hrs followed by substrate addition measured after 3 hrs by fluorescence assay; format: cell-based
[7] = Cytotoxicity against human Cal27CisR cells assessed as cell survival after 72 hrs by MTT assay; format: functional, cell-based
[8] = Apparent permeability in human Caco2 cells; format: ADME, cell-based, Caco-2
[9] = Apparent permeability in MDCK cells; format: ADME, cell-based, Canis lupus familiaris; conditions: dog
[10] = biological target: Voltage-gated inwardly rectifying potassium channel KCNH2 (Homo sapiens, UniProt Q12809); test: Inhibition of human ERG
Chain of Voltage-gated inwardly rectifying potassium channel KCNH2 (Q12809 whole entry): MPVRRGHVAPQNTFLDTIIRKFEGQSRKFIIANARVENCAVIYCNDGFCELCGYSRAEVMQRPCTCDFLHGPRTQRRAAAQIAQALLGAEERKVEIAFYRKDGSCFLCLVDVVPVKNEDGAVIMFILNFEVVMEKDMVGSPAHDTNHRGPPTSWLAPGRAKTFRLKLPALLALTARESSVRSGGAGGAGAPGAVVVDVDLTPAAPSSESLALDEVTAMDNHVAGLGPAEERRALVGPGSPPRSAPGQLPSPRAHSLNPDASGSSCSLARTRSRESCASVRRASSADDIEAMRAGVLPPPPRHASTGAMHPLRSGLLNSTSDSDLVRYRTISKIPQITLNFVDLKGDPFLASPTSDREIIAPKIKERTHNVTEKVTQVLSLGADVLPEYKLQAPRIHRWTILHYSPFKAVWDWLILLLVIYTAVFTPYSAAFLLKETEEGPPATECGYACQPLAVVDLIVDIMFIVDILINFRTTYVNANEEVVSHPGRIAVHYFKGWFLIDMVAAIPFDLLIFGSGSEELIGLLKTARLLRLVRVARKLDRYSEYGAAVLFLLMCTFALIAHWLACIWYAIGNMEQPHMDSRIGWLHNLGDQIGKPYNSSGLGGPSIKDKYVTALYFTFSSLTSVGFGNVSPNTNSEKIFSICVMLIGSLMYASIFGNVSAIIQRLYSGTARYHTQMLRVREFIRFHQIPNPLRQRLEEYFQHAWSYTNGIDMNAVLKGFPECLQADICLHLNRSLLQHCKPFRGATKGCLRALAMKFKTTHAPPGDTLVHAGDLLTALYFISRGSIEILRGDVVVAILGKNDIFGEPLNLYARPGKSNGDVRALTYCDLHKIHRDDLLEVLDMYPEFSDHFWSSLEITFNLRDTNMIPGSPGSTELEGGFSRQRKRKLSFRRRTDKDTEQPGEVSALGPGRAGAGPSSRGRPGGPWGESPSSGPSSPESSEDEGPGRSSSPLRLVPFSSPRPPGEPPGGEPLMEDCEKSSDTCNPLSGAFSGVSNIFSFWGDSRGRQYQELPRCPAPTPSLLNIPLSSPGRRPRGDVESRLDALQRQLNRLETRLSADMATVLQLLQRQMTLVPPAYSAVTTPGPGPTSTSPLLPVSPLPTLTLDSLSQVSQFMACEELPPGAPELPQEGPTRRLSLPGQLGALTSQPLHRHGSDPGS

IC50 [1]	IC50 [2]	IC50 [3]	IC50 (Histone deacetylase 1)	IC50 [4]	IC50 [5]	IC50 (Histone deacetylase 2)	IC50 (Histone deacetylase 8)	IC50 [6]	Papp ([8]; Caco-2, read-out: Papp)	Papp ([9]; MDCK, read-out: Papp)	Papp ([8]; caco-2)	Papp ([9]; mdck)	SMILES	IC50 (A2780cisR)	IC50 (A2780)	IC50 (CAL-27)	IC50 [7]	IC50 [10]
660 nM	680 nM	370 nM	96.4 nM	106 nM	16 nM	146 nM	6760 nM	490 nM					Cc1ccc(NC(=O)CN(CCCCCC(=O)NO)C(=O)c2ccc(N(C)C)cc2)cc1	1610 nM	400 nM	530 nM	600 nM	
1090 nM	820 nM	870 nM						800 nM					CC(C)CNC(=O)CN(CCCCCC(=O)NO)C(=O)c1ccc(N(C)C)cc1	3190 nM	1900 nM	1870 nM	2110 nM	
1420 nM	1900 nM	1400 nM						1520 nM					CN(C)c1ccc(C(=O)N(CCCCCC(=O)NO)CC(=O)NC2CCCCC2)cc1	3310 nM	1540 nM	2970 nM	35500 nM	
630 nM	350 nM	370 nM	24.7 nM	135 nM	26 nM	61 nM	7330 nM	410 nM					Cc1cc(C)cc(C(=O)N(CCCCCC(=O)NO)CC(=O)NCc2ccccc2)c1	1850 nM	330 nM	700 nM	1410 nM	
1300 nM	810 nM	950 nM						800 nM					Cc1ccc(NC(=O)CN(CCCCCC(=O)NO)C(=O)c2cc(C)cc(C)c2)cc1	2180 nM	1270 nM	1670 nM	2110 nM	
24500 nM	30800 nM	18200 nM						28800 nM					CN(C)c1ccc(C(=O)N(CCCCCC(=O)NO)C(C)(C)C(=O)NC2CCCCC2)cc1	107000 nM	68500 nM	47700 nM	46100 nM	
8980 nM	9510 nM	6850 nM						4590 nM					CC(C)(C)NC(=O)CN(CCCCCC(=O)NO)C(=O)c1ccccc1	42400 nM	20700 nM	16700 nM	19500 nM	
2060 nM	2490 nM	1780 nM						1970 nM					CN(C)c1ccc(C(=O)N(CCCCCC(=O)NO)CC(=O)NC(C)(C)C)cc1	5180 nM	1030 nM	4040 nM	2180 nM	

More lines, now with the values behind:

SMILES	IC50 [1]	IC50 [2]	IC50 [3]	IC50 (Histone deacetylase 1)	IC50 [4]	IC50 [5]	IC50 (Histone deacetylase 2)	IC50 (Histone deacetylase 8)	IC50 [6]	Papp ([8]; Caco-2, read-out: Papp)	Papp ([9]; MDCK, read-out: Papp)	Papp ([8]; caco-2)	Papp ([9]; mdck)	IC50 (A2780cisR)	IC50 (A2780)	IC50 (CAL-27)	IC50 [7]	IC50 [10]
O=C(CCCCCN(CC(=O)NC1CCCCC1)C(=O)c1ccccc1)NO	1660 nM	1130 nM	1340 nM						1080 nM					8210 nM	3460 nM	3800 nM	10300 nM	
O=C(CCCCCN(C(=O)c1ccccc1)C(C(=O)NC1CCCCC1)c1ccccc1)NO (stereo unspecified)	3140 nM	2920 nM	2060 nM						2650 nM					5180 nM	3870 nM	6360 nM	5280 nM	
O=C(CCCCCN(CC(=O)NC1CCCCC1)C(=O)c1cccc2ccccc12)NO	960 nM	1290 nM	750 nM						600 nM					4120 nM	260 nM	2400 nM	5600 nM	
Cc1cc(C)cc(C(=O)N(CCCCCC(=O)NO)CC(=O)NC2CCCCC2)c1	880 nM	930 nM	710 nM	27.4 nM	214 nM	60 nM	84 nM	7400 nM	640 nM					3810 nM	160 nM	1130 nM	1140 nM	
O=C(CCCCCN1C(=O)c2ccccc2N(Cc2ccccc2)C(=O)[C@@H]1Cc1ccccc1)NO										14.4 ×10⁻⁶ cm/s	10.9 ×10⁻⁶ cm/s							2230 nM
CN(C)c1ccc(C(=O)N(CC(=O)NC2CCCCC2)Cc2ccc(C(=O)NO)cc2)cc1										9.8 ×10⁻⁶ cm/s	6.6 ×10⁻⁶ cm/s	10.1 ×10⁻⁶ cm/s	5.8 ×10⁻⁶ cm/s					21500 nM and 52100 nM
O=C(CCCCCN(C(=O)c1ccccc1)C1(C(=O)NC2CCCCC2)CCCCC1)NO	13400 nM	10100 nM	14300 nM						10200 nM					50500 nM	42600 nM	44100 nM	77500 nM	
CC(C)(C(=O)NC1CCCCC1)N(CCCCCC(=O)NO)C(=O)c1ccccc1	37900 nM	44900 nM	26200 nM						43000 nM					281000 nM	295000 nM	66900 nM	4070 nM	
CC(C)(C)NC(=O)C(C)(C)N(CCCCCC(=O)NO)C(=O)c1ccccc1	127000 nM	102000 nM	92500 nM						132000 nM					579000 nM	207000 nM	75800 nM	13800 nM	
Cc1ccc(C(C(=O)NC2CCCCC2)N(CCCCCC(=O)NO)C(=O)c2ccccc2)cc1 (stereo unspecified)	2810 nM	3630 nM	2940 nM						3220 nM					4290 nM	2090 nM	4520 nM	19000 nM	
